Here are results for 11 compounds from ChEMBL document CHEMBL1201862, “PubChem BioAssay data set” (2004).

Holding throughout (experiment): NCI tumour cell line growth inhibition, 48 h
Test [1] has as its system 786-0.
For test [2], the system named is ACHN.
The test system of test [3] is DU-145.
Test [4] concerns EKVX.
Test [5] concerns KM12.
In test [6] the test system is LOX IMVI.
Test [7] deals with M14.
The test system of test [8] is MDA-MB-231.
The test system of test [9] is MDA-N.
For test [10], the system named is NCI-H226.
The subject of test [11] is OVCAR-3.
Test [12] relates to RPMI-8226.
Test [13] has as its system SK-MEL-28.
In test [14] the test system is SK-OV-3.
Test [15] relates to U-251.
Test [16] has as its system UO-31.
Test [17] deals with HT-29.
For test [18], the system named is Hs-578T.
Test [19] has as its system NCI-H522.
Test [20] relates to OVCAR-4.

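Tested at 5 concentrations; 48 h exposure; 96-well plates; endpoints linearly interpolated, else capped at highest concentration. GI50 is the concentration that inhibits growth by half.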 Active and inactive are the calls of the source. No stated cut-off is given here; in the data, active = GI50 up to about 1.1 µM and inactive = higher. Some results are limits rather than exact numbers.

In the case of `O=[N+]([O-])/C(Cl)=C(\NCCN/C(C(Cl)=C(Cl)Cl)=C(/Cl)[N+](=O)[O-])C(Cl)=C(Cl)Cl`, the GI50 in test [1] was 31.6 µM (inactive); in test [2] it was > 100 µM (inactive); in [3], > 100 µM (inactive); in test [4], > 100 µM (inactive); in test [5] it was 31.8 µM (inactive); in test [6], 18.8 µM (inactive). Besides, the GI50 in [7] is 61.1 µM (inactive); in [8] it was 52.1 µM (inactive); in test [9] it was 82.2 µM (inactive); in test [10] it was > 100 µM (inactive); in test [11] it was 16.5 µM (inactive); in [12], 17.7 µM (inactive). For the same compound, the GI50 in test [13] is 57.8 µM (inactive); in test [14] it was 69.5 µM (inactive); in test [15], 48.8 µM (inactive); in [16], > 100 µM (inactive).
Turning to `CC[C@@H]1CN2CCC1C[C@@H]2C(O)c1ccnc2ccc(OCCN3CCN(CCOc4ccc5nccc(C(O)[C@@H]6C[C@@H]7CCN6C[C@@H]7CC)c5c4)CC3)cc12` (some centres not stated), the GI50 is 13.4 µM (inactive) in test [1]; 15.1 µM (inactive) in test [2]; 17.5 µM (inactive) in [3]; 17.1 µM (inactive) in [4]; 15.7 µM (inactive) in test [17]; 15.3 µM (inactive) in test [18]. Besides, the GI50 in test [5] is 16.1 µM (inactive); in test [6] it was 14.8 µM (inactive); in test [7] it was 12.8 µM (inactive); in [8], 15.9 µM (inactive); in test [9], 12.9 µM (inactive); in [19] it was 12 µM (inactive). Moreover, the GI50 was 19.6 µM (inactive) in test [11]; 19.8 µM (inactive) in [20]; 2.59 µM (inactive) in test [12]; 17.1 µM (inactive) in test [13]; 18.3 µM (inactive) in test [14]; 16.7 µM (inactive) in test [15].
As to `CCC(=O)Nc1ccc(/N=C/c2cccc(Oc3ccccc3)c2)cc1`, the GI50 in [1] is 42.4 µM (inactive); in [2] it was > 100 µM (inactive); in test [3] it was 46.2 µM (inactive); in [4], 65.5 µM (inactive); in test [17] it was 49.2 µM (inactive); in [18] it was > 100 µM (inactive). In addition, the GI50 in [5] is > 100 µM (inactive); in test [6] it was 29.6 µM (inactive); in test [7], 46.6 µM (inactive); in test [9] it was 40.1 µM (inactive); in test [10], 18.2 µM (inactive); in test [19], > 100 µM (inactive). Besides, the GI50 in [11] is 63.8 µM (inactive); in test [20] it was 55.3 µM (inactive); in test [12], 21.8 µM (inactive); in [13] it was 86.9 µM (inactive); in test [14] it was > 100 µM (inactive); in test [16] it was 70.5 µM (inactive).
On to `CCOP(=O)(Nc1ccc(-c2ccc(N)cc2)cc1)OCC`, for which the GI50 in [1] was > 100 µM (inactive); in test [2] it was > 100 µM (inactive); in test [3] it was > 100 µM (inactive); in [4], 38.9 µM (inactive); in test [17], > 100 µM (inactive); in [18] it was 43.6 µM (inactive). Also, the GI50 in test [5], in test [7], in test [8], in test [9], in [19] and in test [11] was > 100 µM (inactive) throughout. Besides, the GI50 in test [20], in test [12], in test [13], in [14], in test [15] and in test [16] was > 100 µM (inactive) in each case.
With `Cc1ccc(/C=N/Nc2cnccn2)s1`, the GI50 in [1] was > 100 µM (inactive); in test [2] it was > 100 µM (inactive); in test [4], 80.5 µM (inactive); in [17], 47.1 µM (inactive); in test [18], > 100 µM (inactive); in [5], > 100 µM (inactive). Also, the GI50 in [6] is > 100 µM (inactive); in test [7], > 100 µM (inactive); in test [8], 96.2 µM (inactive); in [9], 99.3 µM (inactive); in [10] it was 38.7 µM (inactive); in test [19], 83 µM (inactive). The GI50 in test [11], in test [20], in [12], in [13], in [14] and in test [15] was > 100 µM (inactive) each time. In [16], the GI50 is > 100 µM (inactive).
For `C[C@]12CC[C@H]3[C@@H](CCC4=CC(=O)C=C[C@@]43O)[C@@H]1CCC2=O`, the GI50 in test [1] was > 100 µM (inactive); in test [2], > 100 µM (inactive); in test [3] it was > 100 µM (inactive); in test [4], 70.8 µM (inactive); in test [5], > 100 µM (inactive); in test [6], 33.6 µM (inactive). Besides, the GI50 in test [7] is > 100 µM (inactive); in test [8], > 100 µM (inactive); in test [9], > 100 µM (inactive); in test [10], 69.8 µM (inactive); in test [11], > 100 µM (inactive); in test [12], > 100 µM (inactive). The GI50 in test [13], in test [15] and in [16] was > 100 µM (inactive) in each case.
Regarding `NCCN1C(=O)c2cc(Cl)c(Cl)cc2C1(O)c1ccc(Cl)cc1` (configuration not stated), the GI50 was 1.61 µM (inactive) in test [1]; 2.19 µM (inactive) in test [2]; 2.69 µM (inactive) in test [3]; 2.23 µM (inactive) in test [4]; 1.89 µM (inactive) in test [17]; 2.74 µM (inactive) in [18]. The GI50 in test [5] is 2.32 µM (inactive); in test [6], 1.7 µM (inactive); in test [7], 1.77 µM (inactive); in [8] it was 2.01 µM (inactive); in test [9] it was 1.85 µM (inactive); in test [11], 2.19 µM (inactive). For the same compound, the GI50 is 1.76 µM (inactive) in [20]; 2.44 µM (inactive) in [12]; 1.75 µM (inactive) in [13]; 13.5 µM (inactive) in test [14]; 1.74 µM (inactive) in test [15]; 4.86 µM (inactive) in test [16].
For `COC(=O)C1CCC(=S)N1C(=O)OCc1ccccc1` (configuration not stated), the GI50 is > 100 µM (inactive) in test [1]; > 100 µM (inactive) in test [2]; > 100 µM (inactive) in test [3]; 49 µM (inactive) in [4]; > 100 µM (inactive) in test [17]; 49.4 µM (inactive) in test [18]. Also, the GI50 in test [5] is > 100 µM (inactive); in [7], > 100 µM (inactive); in test [8], > 100 µM (inactive); in test [9] it was > 100 µM (inactive); in test [19], 86.7 µM (inactive); in test [11] it was 78.3 µM (inactive). The GI50 in test [20] is > 100 µM (inactive); in test [12], > 100 µM (inactive); in test [13], > 100 µM (inactive); in test [14] it was > 100 µM (inactive); in test [15] it was 81.8 µM (inactive); in test [16] it was 95.7 µM (inactive).
As for `CCCCn1c(C)c(C(=O)OCC)c2cc(OCc3ccc(C(=O)Nn4c(C)ccc4C)cc3)c(Br)cc21`, the GI50 in test [1], in [2], in test [3], in test [4], in test [17] and in [18] was > 100 µM (inactive) each time. The GI50 in test [5], in test [6], in test [7], in test [9], in test [10] and in test [19] was > 100 µM (inactive) each time. Moreover, the GI50 in [11], in test [20], in test [12], in test [13], in test [14] and in [15] was > 100 µM (inactive) each time.
For `COc1ccc(Nc2nc(NNC(=O)Cc3ccccc3)nc(NNC(=O)c3ccncc3)n2)cc1`, the GI50 in test [1] was > 10 µM (inactive); in test [2] it was > 10 µM (inactive); in test [3], > 10 µM (inactive); in test [4], 0.955 µM (active); in test [17] it was > 10 µM (inactive); in test [5] it was > 10 µM (inactive). The GI50 in test [6], in [7], in test [8], in test [9], in [19] and in test [11] was > 10 µM (inactive) throughout. Moreover, the GI50 in test [20], in [13], in [14], in test [15] and in test [16] was > 10 µM (inactive) in each case.
Turning to `CCOC(=O)COc1ccc(/C=C/C(=O)c2ccc(OC)cc2)cc1`, the GI50 in test [1] is 20.8 µM (inactive); in test [2] it was 33 µM (inactive); in test [3], 29.9 µM (inactive); in test [4], 27.8 µM (inactive); in test [17], 21.5 µM (inactive); in test [18] it was 25.9 µM (inactive). For the same compound, the GI50 is 28.4 µM (inactive) in test [5]; 16.3 µM (inactive) in test [6]; 34.6 µM (inactive) in test [7]; 37.6 µM (inactive) in [8]; 26.7 µM (inactive) in test [9]; 22.3 µM (inactive) in [19]. For the same compound, the GI50 in test [11] is 30 µM (inactive); in test [12], 39.3 µM (inactive); in [13], 19.3 µM (inactive); in [15], 14.3 µM (inactive); in [16], 19.3 µM (inactive).
